Data published in patent US6737383B1, “Herbicidal oxadiazolidines” (priority 1999, dated 2004).

Key:
bedstraw = test: Test B pre/postemergence bedstraw; format: in vivo, Galium aparine
Outline: (§1)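 Test chemicals in a non-phytotoxic solvent mixture with surfactant were sprayed preemergence onto planted seeds and postemergence onto plants 2 to 18 cm tall (1- to 4-leaf stage). After twelve to sixteen days in a greenhouse, injury was visually rated against untreated controls from 0 (no effect) to 10 (complete control).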

giant foxtail = test: Test B pre/postemergence giant foxtail; format: in vivo, Setaria faberii
Outline: as §1

wild oat = test: Test B pre/postemergence wild oat; format: in vivo, Avena fatua
Outline: as §1

purple nutsedge = test: Test B pre/postemergence purple nutsedge; format: in vivo, Cyperus rotundus
Outline: as §1

blackgrass = test: Test B pre/postemergence blackgrass; format: in vivo, Alopecurus myosuroides
Outline: as §1

crabgrass = test: Test B pre/postemergence crabgrass; format: in vivo, Digitaria sanguinalis
Outline: as §1

wheat = test: Test B pre/postemergence wheat; format: in vivo, Triticum aestivum
Outline: as §1

duck salad = test: Test B flood test duck salad; format: in vivo, Heteranthera limosa
Outline: (§2)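 Read-out is a visual response score from 0 (no effect) to 10 (complete control), assigned by comparison with untreated controls. Treatment was applied at the 2-leaf stage, and plants stayed in the greenhouse for twelve to sixteen days before scoring.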

corn = test: Test B pre/postemergence corn; format: in vivo, Zea mays
Outline: as §1

smallflower flatsedge = test: Test B flood test smallflower flatsedge; format: in vivo, Cyperus difformis
Outline: as §2

cocklebur = test: Test B pre/postemergence cocklebur; format: in vivo, Xanthium strumarium
Outline: as §1

bamyardgrass = test: Test B flood test barnyardgrass; format: in vivo, Echinochloa crus-galli
Outline: as §2

surinam grass = test: Test B pre/postemergence surinam grass; format: in vivo, Brachiaria decumbens
Outline: as §1

morningglory = test: Test B pre/postemergence morningglory; format: in vivo, Ipomoea hederacea
Outline: as §1

velvetleaf = test: Test B pre/postemergence velvetleaf; format: in vivo, Abutilon theophrasti
Outline: as §1

rice = test: Test B flood test rice; format: in vivo, Oryza sativa
Outline: as §2

[1] = Postemergence, Rate 62 g/ha, scale 0 to 10, 0 is no effect, 10 is complete control
[2] = Postemergence, Rate 250 g/ha, scale 0 to 10, 0 no effect, 10 complete control
[3] = Preemergence, Rate 62 g/ha, scale 0 to 10 (0 no effect, 10 complete control)
[4] = Preemergence, Rate 125 g/ha, scale 0 to 10 (0 no effect, 10 complete control)
[5] = Preemergence, Rate 250 g/ha, scale of 0 to 10 where 0 is no effect and 10 is complete control
[6] = Preemergence, Rate 500 g/ha, scale 0 (no effect) to 10 (complete control)
[7] = Rate 125 g/ha, Postemergence, scale 0 to 10, 0 no effect, 10 complete control
[8] = Rate 500 g/ha, Postemergence, scale 0 to 10, 0 no effect, 10 complete control
[9] = Rate 125 g/ha, Postemergence section (flood test species), scale 0 to 10, 0 no effect, 10 complete control
[10] = Rate 500 g/ha, listed under Postemergence (flood test species), scale 0 to 10, 0 no effect, 10 complete control
[11] = flood test, listed under Postemergence, Rate 250 g/ha, scale 0 to 10, 0 no effect, 10 complete control

Cc1ccccc1-n1c(=O)on(C(=O)N(c2cc(F)ccc2F)C(C)C)c1=O [Compound 68]
Bedstraw plant response rating (bedstraw; [1]): 4 | Bedstraw plant response rating (bedstraw; [2]): 7 | Bedstraw plant response rating (bedstraw; [3]): 0 | Plant response rating, Bedstraw (bedstraw; [4]): 0 | Plant response rating, Bedstraw (bedstraw; [5]): 4 | Bedstraw plant response rating (bedstraw; [6]): 4 | Bedstraw plant response rating (bedstraw; [7]): 7 | Giant foxtail plant response rating (giant foxtail; [1]): 0 | Giant foxtail plant response rating (giant foxtail; [2]): 0 | Giant foxtail plant response rating (giant foxtail; [3]): 5 | Plant response rating, Giant foxtail (giant foxtail; [4]): 9 | Plant response rating, Giant foxtail (giant foxtail; [5]): 10 | Giant foxtail plant response rating (giant foxtail; [6]): 10 | Giant foxtail plant response rating (giant foxtail; [7]): 0 | Giant foxtail plant response rating (giant foxtail; [8]): 0 | Wild oats plant response rating (wild oat; [1]): 0 | Wild oats plant response rating (wild oat; [2]): 0 | Wild oats plant response rating (wild oat; [3]): 0 | Plant response rating, Wild oats (wild oat; [4]): 0 | Plant response rating, Wild oats (wild oat; [5]): 2 | Wild oats plant response rating (wild oat; [6]): 2 | Wild oats plant response rating (wild oat; [7]): 0 | Wild oats plant response rating (wild oat; [8]): 0 | Nutsedge plant response rating (purple nutsedge; [1]): 0 | Nutsedge plant response rating (purple nutsedge; [2]): 0 | Plant response rating, Nutsedge (purple nutsedge; [4]): 0 | Plant response rating, Nutsedge (purple nutsedge; [5]): 10 | Nutsedge plant response rating (purple nutsedge; [6]): 10 | Nutsedge plant response rating (purple nutsedge; [7]): 0 | Nutsedge plant response rating (purple nutsedge; [8]): 0 | Blackgrass plant response rating (blackgrass; [1]): 0 | Blackgrass plant response rating (blackgrass; [2]): 2 | Blackgrass plant response rating (blackgrass; [3]): 0 | Plant response rating, Blackgrass (blackgrass; [4]): 2 | Plant response rating, Blackgrass (blackgrass; [5]): 2 | Blackgrass plant response rating (blackgrass; [6]): 4 | Blackgrass plant response rating (blackgrass; [7]): 0 | Blackgrass plant response rating (blackgrass; [8]): 2 | Crabgrass plant response rating (crabgrass; [1]): 0 | Crabgrass plant response rating (crabgrass; [2]): 0 | Crabgrass plant response rating (crabgrass; [3]): 2 | Plant response rating, Crabgrass (crabgrass; [4]): 3 | Plant response rating, Crabgrass (crabgrass; [5]): 10 | Crabgrass plant response rating (crabgrass; [6]): 10 | Crabgrass plant response rating (crabgrass; [7]): 0 | Crabgrass plant response rating (crabgrass; [8]): 0 | Wheat plant response rating (wheat; [1]): 0 | Wheat plant response rating (wheat; [2]): 0 | Wheat plant response rating (wheat; [3]): 0 | Plant response rating, Wheat (wheat; [4]): 0 | Plant response rating, Wheat (wheat; [5]): 0 | Wheat plant response rating (wheat; [6]): 0 | Wheat plant response rating (wheat; [7]): 0 | Wheat plant response rating (wheat; [8]): 0 | Ducksalad plant response rating (duck salad; [1]): 0 | Ducksalad plant response rating (duck salad; [9]): 0 | Ducksalad plant response rating (duck salad; [10]): 0 | Ducksalad plant response rating (duck salad; [11]): 0 | Corn plant response rating (corn; [1]): 0 | Corn plant response rating (corn; [2]): 0 | Corn plant response rating (corn; [3]): 0 | Plant response rating, Corn (corn; [4]): 0 | Plant response rating, Corn (corn; [5]): 0 | Corn plant response rating (corn; [6]): 0 | Corn plant response rating (corn; [7]): 0 | Corn plant response rating (corn; [8]): 0 | S. Flatsedge plant response rating (smallflower flatsedge; [1]): 0 | S. Flatsedge plant response rating (smallflower flatsedge; [9]): 0 | S. Flatsedge plant response rating (smallflower flatsedge; [10]): 0 | S. Flatsedge plant response rating (smallflower flatsedge; [11]): 0 | Cocklebur plant response rating (cocklebur; [1]): 0 | Cocklebur plant response rating (cocklebur; [2]): 2 | Cocklebur plant response rating (cocklebur; [3]): 0 | Plant response rating, Cocklebur (cocklebur; [4]): 0 | Plant response rating, Cocklebur (cocklebur; [5]): 0 | Cocklebur plant response rating (cocklebur; [6]): 0 | Cocklebur plant response rating (cocklebur; [7]): 0 | Cocklebur plant response rating (cocklebur; [8]): 2 | Barnyardgrass plant response rating (bamyardgrass; [1]): 0 | Barnyardgrass plant response rating (bamyardgrass; [9]): 0 | Barnyardgrass plant response rating (bamyardgrass; [10]): 0 | Barnyardgrass plant response rating (bamyardgrass; [11]): 0 | B. signalgrass plant response rating (surinam grass; [1]): 0 | B. signalgrass plant response rating (surinam grass; [2]): 0 | B. signalgrass plant response rating (surinam grass; [3]): 0 | Plant response rating, B. signalgrass (surinam grass; [4]): 3 | Plant response rating, B. signalgrass (surinam grass; [5]): 4 | B. signalgrass plant response rating (surinam grass; [6]): 8 | B. signalgrass plant response rating (surinam grass; [7]): 0 | B. signalgrass plant response rating (surinam grass; Rate 500 g/ha, Postemergence, scale of 0 to 10 where 0 is no effect and 10 is complete control): 0 | Morningglory plant response rating (morningglory; [1]): 2 | Morningglory plant response rating (morningglory; [2]): 2 | Morningglory plant response rating (morningglory; [3]): 0 | Plant response rating, Morningglory (morningglory; [4]): 0 | Plant response rating, Morningglory (morningglory; [5]): 0 | Morningglory plant response rating (morningglory; [6]): 0 | Morningglory plant response rating (morningglory; [7]): 2 | Morningglory plant response rating (morningglory; [8]): 3 | Velvetleaf plant response rating (velvetleaf; [1]): 0 | Velvetleaf plant response rating (velvetleaf; [2]): 2 | Velvetleaf plant response rating (velvetleaf; [3]): 0 | Plant response rating, Velvetleaf (velvetleaf; [4]): 0 | Plant response rating, Velvetleaf (velvetleaf; [5]): 0 | Velvetleaf plant response rating (velvetleaf; [6]): 0 | Velvetleaf plant response rating (velvetleaf; [7]): 0 | Velvetleaf plant response rating (velvetleaf; [8]): 3 | Rice plant response rating (rice; [1]): 0 | Rice plant response rating (rice; [9]): 0 | Rice plant response rating (rice; [10]): 0 | Rice plant response rating (rice; [11]): 0
